Results as given in PMC10517971, “An inverse agonist of orphan receptor GPR61 acts by a G protein-competitive allosteric mechanism” (Nature Communications, 2023).
Read-outs that look alike come from different tables or passages of the source.

Key:
Acetylcholinesterase = Acetylcholinesterase (Homo sapiens, UniProt P22303); assay: Acetylcholinesterase Assay (Ellman); format: biochemical
Description: 67 black 384 well flat -bottomed polystyrene plates. Compound/vehicle or standard (5 µL) were added
68 to wells followed by His -tagged BRD4 (10 µL; 40 nM final concentration in assay). Following a
69 15 min incubation at room temperature a propri etary Cy5 -labelled probe molecule (5 µL; 2 nM
70 final concentration in assay) was added. Following, an additional 16 h incubation at room
71 temperature fluorescence polarization measurements were made using an Envision plate reader
72 (Perkin Elmer, Waltham, MA, USA) and mP values were used for analysis .
73 Acetylcholinesterase As say
74 The assay described is based on Ellmans method, in which thiocholine produced by the action of
75 acetylcholinesterase forms a yellow color with 5,5'- dithiobis(2- nitrobenzoic acid). The intensity
76 of the product color, measured at 405 nm, is proportionate to the enzyme activity in the sample.
77 To each well of a clear 96 polystyrene plate 90 µL enzyme solution (1mU/well) or phosphate
78 buffered saline (PBS) and 10 µL compound/standard or vehicle was added. The plate was
79 incubated at room temperature for 15 min. Subsequently 100 µL of substrate/detection reagent
80 (800 µM acetylthiocholine/1mM 5,5'- dithiobis(2- nitrobenzoic acid)) was added and the plate was
81 read at the 20 min time point.
83 Human embryonic kidney (HEK) cells stably transfected with a doxycycline inducible plasmid […]

Nav1.5 (Peak) = Nav1.5 (Peak) (Homo sapiens, UniProt Q14524); assay: Nav1.5 (peak current) ion channel profiling, Qube384 automated patch clamp (standard and extended protocol); format: cell-based
Nav1.5 (Peak), sequence (Q14524 whole entry): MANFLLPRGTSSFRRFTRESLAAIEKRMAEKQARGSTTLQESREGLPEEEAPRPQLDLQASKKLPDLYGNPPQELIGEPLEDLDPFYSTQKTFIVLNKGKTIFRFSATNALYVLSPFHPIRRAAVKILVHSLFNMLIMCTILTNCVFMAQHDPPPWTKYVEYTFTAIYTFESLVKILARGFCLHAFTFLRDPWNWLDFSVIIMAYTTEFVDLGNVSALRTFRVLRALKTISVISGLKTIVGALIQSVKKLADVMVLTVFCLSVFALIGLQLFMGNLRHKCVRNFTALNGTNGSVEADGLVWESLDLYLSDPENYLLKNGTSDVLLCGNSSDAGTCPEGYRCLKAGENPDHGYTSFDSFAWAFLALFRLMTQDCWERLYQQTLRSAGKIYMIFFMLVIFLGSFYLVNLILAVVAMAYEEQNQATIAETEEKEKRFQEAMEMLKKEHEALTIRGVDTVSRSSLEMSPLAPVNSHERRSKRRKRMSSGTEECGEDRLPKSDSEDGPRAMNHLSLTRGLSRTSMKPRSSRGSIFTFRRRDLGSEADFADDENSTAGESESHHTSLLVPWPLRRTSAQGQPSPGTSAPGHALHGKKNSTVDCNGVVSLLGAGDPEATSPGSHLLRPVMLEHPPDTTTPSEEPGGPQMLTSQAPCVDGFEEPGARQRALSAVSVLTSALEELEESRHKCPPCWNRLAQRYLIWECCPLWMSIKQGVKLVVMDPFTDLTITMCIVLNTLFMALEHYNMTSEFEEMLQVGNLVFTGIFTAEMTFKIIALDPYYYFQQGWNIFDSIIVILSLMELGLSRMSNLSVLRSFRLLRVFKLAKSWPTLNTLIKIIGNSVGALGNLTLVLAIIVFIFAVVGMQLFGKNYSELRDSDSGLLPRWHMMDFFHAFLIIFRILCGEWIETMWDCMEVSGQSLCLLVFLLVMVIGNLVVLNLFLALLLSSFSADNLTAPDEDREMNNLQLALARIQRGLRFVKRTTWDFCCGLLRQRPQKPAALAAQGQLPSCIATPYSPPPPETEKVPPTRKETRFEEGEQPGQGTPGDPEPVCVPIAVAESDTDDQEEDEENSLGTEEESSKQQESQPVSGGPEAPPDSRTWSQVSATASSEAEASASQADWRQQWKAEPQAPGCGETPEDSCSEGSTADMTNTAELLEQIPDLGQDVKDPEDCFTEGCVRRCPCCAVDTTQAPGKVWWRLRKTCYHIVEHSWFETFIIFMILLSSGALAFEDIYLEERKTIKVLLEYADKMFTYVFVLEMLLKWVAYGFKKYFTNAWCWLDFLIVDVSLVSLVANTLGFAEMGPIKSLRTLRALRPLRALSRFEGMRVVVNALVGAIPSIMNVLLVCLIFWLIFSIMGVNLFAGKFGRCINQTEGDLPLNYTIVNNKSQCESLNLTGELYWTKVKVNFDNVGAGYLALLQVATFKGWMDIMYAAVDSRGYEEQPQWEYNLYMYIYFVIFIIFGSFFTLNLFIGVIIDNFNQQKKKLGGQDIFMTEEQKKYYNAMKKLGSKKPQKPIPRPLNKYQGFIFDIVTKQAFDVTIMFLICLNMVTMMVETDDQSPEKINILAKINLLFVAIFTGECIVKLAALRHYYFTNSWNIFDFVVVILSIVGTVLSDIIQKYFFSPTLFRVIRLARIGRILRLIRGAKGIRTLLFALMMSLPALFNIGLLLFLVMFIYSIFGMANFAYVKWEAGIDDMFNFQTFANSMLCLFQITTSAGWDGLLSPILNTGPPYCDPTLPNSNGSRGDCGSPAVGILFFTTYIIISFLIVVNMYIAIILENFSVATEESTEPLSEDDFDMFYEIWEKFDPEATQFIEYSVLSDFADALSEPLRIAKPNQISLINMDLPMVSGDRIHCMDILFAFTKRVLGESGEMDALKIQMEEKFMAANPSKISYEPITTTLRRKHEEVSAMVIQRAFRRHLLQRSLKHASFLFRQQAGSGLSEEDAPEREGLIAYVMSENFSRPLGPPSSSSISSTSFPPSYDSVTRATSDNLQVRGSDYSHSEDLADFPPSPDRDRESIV
Source text: (§1) 105 hERG, Nav1.5 and Cav1.2 Ion Channel Profiling
(§2) 106 Ionic curr ents wer e evalu ated in the whole-cell con figuration using the Qube384 automated planar
107 patch clamp platform (Sophion Bioscience A/S, Ballerup, Denmark). […]
116 HEPES, 2 Na2ATP, pH 7.2, 305 mOsM. […]
(§3) 126 Nav1.5 current, from a holding potential of - 80 mV, a 200 ms prepulse to - 120 mV was used to
(§4) 127 homogenize channel inactivation, followed by a 40 ms step to a test potential of - 15 mV.
(§5) 128 Membrane potential was further depolarized to +40 mV for 200 ms to completely inactivate the
(§6) 129 peak Nav1.5 current, followed by a ramp from +40 mV to - 80 mV (-1.2 mV/ms). This voltage
(§7) 130 pattern was repeated at 0.1 Hz, with peak Nav1.5 defined as the maximum current during the step
(§8) 131 to - 15 mV. All studies were conducted at 23° C.
(§9) 132 Compounds were dissol ved and initially diluted in dimethyl sulfoxide (DMSO), with a final
(§10) 133 dilution in external solution to generate final working concent rations. The final DMSO
(§11) 134 concentration in all experiments was 0.33% (v/v).
(§12) 135 For all protocols three vehicle periods each lasting 5 minutes were applied to establish a stable
(§13) 136 baseline. For the standard protocol this was followed by the addition of increasing concentrations
(§14) 137 of test compound, with each exposure lasting 5 minutes. For the “extended” protocol following
(§15) 138 the three- vehi cle additional each well subsequentl y received a single concentration of compound.
(§16) 139 This application was repeated three times for each well, via a flowthrough addition where the
(§17) 140 solution was replaced wi th the same compound concentration with each addition. Each exposure
(§18) 142 Patch clamp data were analyzed using Assay Software 6.4.72 (Sophion Bioscience A/S, Ballerup,
(§19) 143 Denmark). Current amplitudes were determined by averaging the last 4 currents under each test
(§20) 144 condition. The percentage inhibition of each compound was determined by taking the ratio of
(§21) 145 current amplitude measured in the presence of various concentrations of the test compound
(§22) 146 (ICompound) versus the vehicle control current (IVehicle):
(§23) 148 A dose-response curve was generat ed and fit to the Hill equation by the Sophion Analyzer software
149 to determine an IC50 value for each compound. The minimum and the slope of the fit were free
150 fitted, with the top being fixed to 100% inhibition.
151 GABA Patch Clamp Assay
152 Compound effects on the human GABAA recepto r (α1β2γ2), stably express ed in human embryonic
153 kidney (HEK) cells, were examined in three modes of action: agonist, antagonist and positive
154 allosteric modulation (PAM) modes. Chloride currents evoked by the activation of the GABAA
155 recepto r wer e reco rded in the whole- cell patch clamp configuration with the automated Qube384®
156 platform (Sophion Bioscience A/S, Baltorpvej, Denmark). […]

hERG = hERG (Homo sapiens, UniProt Q12809); assay: hERG ion channel profiling, Qube384 automated patch clamp (standard and extended protocol); format: cell-based
hERG, sequence (Q12809 whole entry): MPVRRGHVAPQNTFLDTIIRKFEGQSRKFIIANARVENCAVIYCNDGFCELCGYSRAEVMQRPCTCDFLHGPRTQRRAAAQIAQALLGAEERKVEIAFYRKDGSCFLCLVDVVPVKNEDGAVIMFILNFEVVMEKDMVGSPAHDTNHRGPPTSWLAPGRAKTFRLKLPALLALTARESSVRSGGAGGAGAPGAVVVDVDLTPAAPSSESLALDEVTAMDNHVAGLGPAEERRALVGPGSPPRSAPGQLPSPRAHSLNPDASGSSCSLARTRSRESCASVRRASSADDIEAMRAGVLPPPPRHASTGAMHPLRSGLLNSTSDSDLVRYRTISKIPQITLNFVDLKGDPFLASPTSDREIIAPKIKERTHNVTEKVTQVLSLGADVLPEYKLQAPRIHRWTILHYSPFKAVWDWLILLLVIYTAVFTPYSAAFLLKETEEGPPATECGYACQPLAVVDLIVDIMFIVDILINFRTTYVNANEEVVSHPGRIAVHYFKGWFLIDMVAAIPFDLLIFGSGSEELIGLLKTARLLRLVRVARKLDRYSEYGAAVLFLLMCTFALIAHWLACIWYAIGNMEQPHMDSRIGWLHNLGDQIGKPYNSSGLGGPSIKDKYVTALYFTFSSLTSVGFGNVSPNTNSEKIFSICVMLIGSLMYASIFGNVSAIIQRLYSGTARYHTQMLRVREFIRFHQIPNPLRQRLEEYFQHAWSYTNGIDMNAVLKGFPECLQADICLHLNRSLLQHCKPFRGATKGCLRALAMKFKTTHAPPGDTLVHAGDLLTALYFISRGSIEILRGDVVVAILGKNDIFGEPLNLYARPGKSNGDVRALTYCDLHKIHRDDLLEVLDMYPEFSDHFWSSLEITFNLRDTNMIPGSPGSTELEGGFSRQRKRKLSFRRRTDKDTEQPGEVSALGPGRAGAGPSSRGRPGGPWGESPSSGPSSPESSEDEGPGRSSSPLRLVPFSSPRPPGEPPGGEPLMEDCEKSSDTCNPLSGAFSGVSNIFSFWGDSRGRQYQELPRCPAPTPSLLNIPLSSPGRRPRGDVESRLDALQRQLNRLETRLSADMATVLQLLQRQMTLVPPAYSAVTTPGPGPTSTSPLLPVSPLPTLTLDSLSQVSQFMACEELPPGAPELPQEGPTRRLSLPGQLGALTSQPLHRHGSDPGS
Source text: as §1, §2
107 patch clamp platform (Sophion Bioscience A/S, Ballerup, Denmark). QChip 384X plates,
108 containing 10 patch clamp holes per well, were used to maximize success rate, which was routinely
110 For hERG experiments, the external solution was composed of (in mM): 132 NaCl, 4 KCl, 1.8
111 CaCl2, 1.2 MgCl2, 10 HEPES, 11 Glucose, pH 7.4, 305 mOsM. […]
121 The hERG current was elicited from a holding potential of - 80 mV by a voltage step to +40 mV
122 for 500 ms, followed by a repolarizing ramp to - 80 mV at - 0.6 mV/ms. This pattern was repeated
123 at a rate of 0.05 Hz. Peak hERG current was measured during the ramp. […]
as §3, §4, §5, §6, §7, §8, §9, §10, §11, §12, §13, §14, §15, §16, §17, §18, §19, §20, §21, §22, §23
149 to determine an IC50 value for each compound. The minimum and the slope of the fit were free […]

Acetylcholinesterase, sequence (P22303 32-614, species assumed): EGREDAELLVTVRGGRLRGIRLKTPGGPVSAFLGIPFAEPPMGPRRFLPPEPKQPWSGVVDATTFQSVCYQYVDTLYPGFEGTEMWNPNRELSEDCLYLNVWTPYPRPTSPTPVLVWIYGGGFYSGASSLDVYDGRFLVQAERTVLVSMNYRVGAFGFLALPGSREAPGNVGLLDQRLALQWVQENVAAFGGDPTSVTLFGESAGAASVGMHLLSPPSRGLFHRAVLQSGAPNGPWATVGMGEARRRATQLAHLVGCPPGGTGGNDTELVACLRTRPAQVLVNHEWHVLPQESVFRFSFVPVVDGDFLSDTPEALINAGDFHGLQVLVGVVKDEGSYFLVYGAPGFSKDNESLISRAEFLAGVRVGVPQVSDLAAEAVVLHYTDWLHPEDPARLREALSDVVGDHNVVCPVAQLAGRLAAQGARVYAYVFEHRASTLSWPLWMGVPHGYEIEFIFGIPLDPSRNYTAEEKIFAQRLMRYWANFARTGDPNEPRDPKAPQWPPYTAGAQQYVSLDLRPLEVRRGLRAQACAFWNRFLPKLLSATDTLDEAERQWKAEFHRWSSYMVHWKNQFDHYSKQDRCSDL

Structure (SMILES): CCOc1cc(C)nc(N(CCOC)S(=O)(=O)c2ccc(NCc3c(F)cncc3F)nc2OC)n1 [Compound 1]
- IC50 (Acetylcholinesterase): > 50 µM
- IC50 (Nav1.5 (Peak)): > 100000 nM
- IC50 (Nav1.5 (Peak); read-out: Ion Channel Extended Protocol IC50 (nM), Period 1st, Nav1.5 (Peak), extended protocol, 1st period): > 100000 nM
- IC50 (Nav1.5 (Peak); read-out: Ion Channel Extended Protocol IC50 (nM), Period 2nd, Nav1.5 (Peak), extended protocol, 2nd period): > 100000 nM
- IC50 (Nav1.5 (Peak); read-out: Ion Channel Extended Protocol IC50 (nM), Period 3rd, Nav1.5 (Peak), extended protocol, 3rd period): > 100000 nM
- IC50 (hERG; extended protocol, 1st period, read-out: Ion Channel Extended Protocol IC50 (nM), Period 1st): 36500 nM
- IC50 (hERG; extended protocol, 2nd period, read-out: Ion Channel Extended Protocol IC50 (nM), Period 2nd): 28000 nM
- IC50 (hERG; extended protocol, 3rd period, read-out: Ion Channel Extended Protocol IC50 (nM), Period 3rd): 18700 nM
- IC50 (hERG; standard protocol, read-out: Patch IC50): 52900 nM
